Results as given in the COVID Moonshot data (paper PMC7615835).
Values joined by “and” are separate entries in the source; they are usually repeats but may differ in a detail not shown here. Identical values can stand only once.

biological target: SARS-CoV-2 Main Protease (SARS-CoV-2) (UniProt P0DTD1)

Row | SMILES | IC50
1 | Cn1ccnc1CN(C(=O)CC1(C(=O)Nc2cncc3ccccc23)CCOc2ccc(Cl)cc21)C1CC1 (configuration not stated) | 5.05 µM
2 | Cc1cc(Nc2cc(Cl)cc(CC(=O)Nc3cncc4ccccc34)c2)c(Cl)cc1F | 2.15 µM
3 | N#Cc1cc(Cl)ccc1Nc1cc(Cl)cc(CC(=O)Nc2cncc3ccccc23)c1 | 2.23 µM
4 | CC1NCCn2c(-c3nc(-c4cnc5cnccn45)no3)ccc21 (configuration not stated) | > 99.5 µM
5 | COc1cncc(C(C(=O)NCCc2cccc(F)c2)N(C(=O)c2ccco2)c2ccc(C(C)(C)C)cc2)c1C (configuration not stated) | > 99.5 µM
6 | O=C(Nc1cc(=O)[nH]c2ccccc12)C1CCOc2ccc(Cl)cc21 (configuration not stated) | > 99.5 µM
7 | CC(C)(C)c1ccc(N(C(=O)c2ccco2)C(C(=O)NCCc2cccc(F)c2)c2snc3ccccc23)cc1 (configuration not stated) | 5.33 µM
8 | O=C(NCCc1cccc(F)c1)C(c1cccnc1)N(C(=O)c1cocn1)C1CC2CCCC2C1 (configuration not stated) | > 99.5 µM
9 | CCOC(=O)c1c(C)n(S(C)(=O)=O)c2ccc(N(C(=O)c3ccco3)S(C)(=O)=O)cc12 | 0.282 µM
10 | O=C(Nc1cncc2ccccc12)C1CN(S(=O)(=O)[C@@H]2CCC[C@H]2O)Cc2ccc(Cl)cc21 (stereo in doubt) | 0.129 µM and 0.146 µM
11 | NC(=O)C1Cc2ccccc2CN1CC(=O)N1CCN(c2ncccn2)CC1 (configuration not stated) | > 99.5 µM
12 | O=C(Cc1cncc2ccccc12)N1CCOc2ccc(Cl)cc21 | 6.05 µM
13 | O=C(Cc1cccc(Cl)c1)Nc1cncc2oncc12 | 50.6 µM
14 | Cc1ccncc1NC(=O)CC(C)C(C)C (configuration not stated) | > 99 µM
15 | CS(=O)(=O)CCN1CC(C(=O)Nc2cncc3ccccc23)c2cc(Cl)ccc2C1=O (configuration not stated) | 0.177 µM
16 | N#CC1(CS(=O)(=O)N2Cc3ccc(Cl)cc3C(C(=O)Nc3cncc4cc(NS(=O)(=O)C5CC5)ccc34)C2)CC1 (configuration not stated) | < 0.05 µM
17 | CN(C)C(=O)CN1CCN(c2cc(Cl)cc(CC(=O)Nc3cncc4ccccc34)c2)CC1 | 2.85 µM
18 | Cc1ccccc1CN(C(=O)c1cocn1)C(C(=O)NCCc1cccc(F)c1)c1cccnc1 (configuration not stated) | > 99.5 µM
19 | NC1CCc2c(NC(=O)C3CCOc4ccc(Cl)cc43)cncc21 (configuration not stated) | 25.8 µM
20 | CC(C)(C)c1ccc(N(C(=O)c2ccco2)C(C(=O)NCCc2cccc(F)c2)c2[nH]nc3ccccc23)cc1 (configuration not stated) | > 99.5 µM
21 | CCC(C)(C)CCN(Cc1ccsc1)C(=O)Cn1nnc2ccccc21 | 78.5 µM
22 | O=C(Cc1cc(Cl)cc(Nc2c(F)cc(F)cc2Cl)c1)Nc1cncc2ccccc12 | 2.06 µM
23 | Cc1ccncc1NC(=O)Cc1cc(Cl)cc(S(N)(=O)=O)c1 | 14.6 µM
24 | N#Cc1ccccc1NC(=O)[C@@H](c1ccccc1)N1Cc2ccccc2C1=O (stereo in doubt) | > 99.5 µM
25 | CC(C)(C)c1ccc(N(C(=O)c2sc(N3CCOCC3)nc2Cl)C(C(=O)NCCc2cccc(F)c2)c2cccnc2)cc1 (configuration not stated) | > 99.5 µM

Row | SMILES | IC50
26 | Cc1ccncc1NC(=O)Nc1cccc(C#N)c1 | > 99 µM
27 | O=C(NCCc1cccc(F)c1)C(c1cccnc1)N(C(=O)c1cocn1)C1CCCOC1 (configuration not stated) | > 99.5 µM
28 | COc1cc(OC)[n+](C)c(C#N)n1 | > 99.5 µM
29 | O=C(Cc1cccc(Cl)c1)Nc1cncc2cc(C(F)F)ccc12 | 2.25 µM
30 | CC(C)C[C@@H](NC(=O)[C@@H](Cc1ccccc1)NC(=O)[C@H](N)Cc1ccccc1)C(=O)N[C@H](CCCCN)C(=O)N1CCC(N)(C(=O)O)CC1 (stereo in doubt) | > 99 µM
31 | N#CCNC(=O)CN1Cc2ccc(Cl)cc2C2(CCN(c3cncc4ccccc34)C2=O)C1 (configuration not stated) | 0.263 µM
32 | O=C(Cc1cc(Cl)cc(N2CCc3ccccc3[C@H]2c2ccccc2)c1)Nc1cncc2ccccc12 (stereo in doubt) | 2.78 µM
33 | CC(C)(C)c1ccc(N(C(=O)c2cc(C3(O)COC3)on2)C(C(=O)NCCc2cccc(F)c2)c2cccnc2)cc1 (configuration not stated) | 26.2 µM
34 | O=C(Cn1nnc2ccccc21)N(Cc1cccc(Cl)c1)c1ccc(N2CCCCC2)cc1 | 3.65 µM
35 | O=C(Nc1cncc2ccncc12)[C@@H]1CCOc2cc(F)c(Cl)cc21 (stereo in doubt) | 0.397 µM and 0.849 µM
36 | O=C(Nc1cncc2ccccc12)N1CCOc2ccc(Cl)cc21 | 11.4 µM
37 | CNC(=O)CN1CC(C(=O)Nc2cncc3ccc(C(C)(C)O)cc23)c2cc(Cl)ccc2C1=O (configuration not stated) | 0.384 µM
38 | O=C(Nc1cnccc1CO)[C@@H]1COc2ccc(Cl)cc21 (stereo in doubt) | 42.7 µM and 42 µM
39 | O=C(Nc1cncc2ccccc12)C1c2cc(Cl)ccc2CCN1S(=O)(=O)C1CC1 (configuration not stated) | 1.14 µM
40 | CS(=O)(=O)Nc1ccc2cncc(NC(=O)C3CCS(=O)(=O)c4ccc(Cl)cc43)c2c1 (configuration not stated) | 0.204 µM
41 | O=C(Nc1cncc2ccccc12)C1CCCc2ccc(Cl)cc21 (configuration not stated) | 0.324 µM
42 | CN(C(=O)c1ccccc1N)c1cc(Cl)cc(CC(=O)Nc2cncc3ccccc23)c1 | 1.94 µM
43 | Cc1cn2c(CNC(=O)c3cnn4ccccc34)c(C)nc2s1 | > 99.5 µM
44 | Cc1nnc(C2CCN(C(=O)c3ccc(Br)cc3)CC2)[nH]1 | > 99.5 µM
45 | CC[C@]1(c2ccc(Nc3cc(Cl)cc(CC(=O)Nc4cncc5ccccc45)c3)cc2)CCC(=O)NC1=O (stereo in doubt) | 1.91 µM
46 | CC1(NC(=O)CN2Cc3ccc(Cl)cc3C3(CCN(c4cncc5ccccc45)C3=O)C2)CC1 (configuration not stated) | 0.271 µM
47 | CC1CN(Cc2cccc(Cl)c2)CCN1C(=O)CCl (configuration not stated) | 7.73 µM
48 | O=C(NCCc1cccc(F)c1)C(c1cccnc1)N(Cc1cccnc1)C(=O)c1cnc[nH]1 (configuration not stated) | > 99 µM
49 | N#Cc1ncc(Br)cn1 | > 99.5 µM
50 | N#CC1(CS(=O)(=O)N2Cc3ccc(Cl)cc3C3(CCN(c4cncc5ccc(OCCN6CCCC6)cc45)C3=O)C2)CC1 (configuration not stated) | 0.225 µM

Row | SMILES | IC50
51 | COCCNC(=O)C(c1cccnc1)N(C(=O)c1cocn1)c1ccc(C(C)(C)C)cc1 (configuration not stated) | 8.46 µM
52 | CC(C)(C(N)=O)c1ccc(N(Cc2ccsc2)C(=O)Cn2nnc3ccccc32)cc1 | 3.17 µM
53 | CN(CCO)S(=O)(=O)N1Cc2ccc(Cl)cc2C2(CCN(c3cncc4ccccc34)C2=O)C1 (configuration not stated) | 0.699 µM
54 | O=C(NCCc1cccc(F)c1)C(c1cccnc1)N(C(=O)c1cnc[nH]1)c1cccc(Oc2cccnn2)c1 (configuration not stated) | > 99 µM
55 | O=C(CN1CC(C(=O)Nc2cncc3cc(F)ccc23)c2cc(Cl)ccc2C1=O)NCC(F)(F)F (configuration not stated) | 0.879 µM
56 | O=C(Nc1cncc2ccccc12)C1CN(S(=O)(=O)NC2CCC2)Cc2ccc(Cl)cc21 (configuration not stated) | 0.0999 µM and 0.132 µM and 0.127 µM
57 | Cc1ccc2ncc(NC(=O)Cc3cccc(Cl)c3)n2c1 | 9.01 µM
58 | O=C(Cc1cc(Cl)cc(Nc2cc(C(F)(F)F)ccn2)c1)Nc1cncc2ccccc12 | 1.84 µM
59 | N#Cc1ccc(N(C(=O)c2ccco2)C(C(=O)NCCc2cccc(F)c2)c2cccnc2)cc1 (configuration not stated) | 10.4 µM
60 | CC(C)(C)c1ccc(N(C(=O)c2ccon2)C(C(=O)NCCc2cccc(F)c2)c2cccnc2)cc1 (configuration not stated) | 4.26 µM
61 | O=C(CCl)N1CCN(S(=O)(=O)c2ccsc2)[C@H](C(=O)N2CCN(c3ccccc3)CC2)C1 (stereo in doubt) | 1.98 µM
62 | O=C(Cc1cccc(Cl)c1)Nc1cnccc1C(F)(F)F | 18.2 µM and > 9.95 µM
63 | COC(=O)/C=C/C(=O)N(C(=O)[C@H]1CCOc2ccc(Cl)cc21)c1cncc2ccccc12 (stereo in doubt) | 4.36 µM
64 | CNS(=O)(=O)c1cc2c(cc1OCc1ccccc1)OCO2 | > 99.5 µM
65 | O=C(NNc1cc(O)nc2ncccc12)c1ccnc2ccccc12 | > 99.5 µM
66 | CC(C)c1ccncc1NC(=O)Cc1cccc(Cl)c1 | 19.5 µM
67 | O=C(CCl)N1CCN(Cc2ccsc2)CC1 | 3.27 µM and 3.74 µM
68 | Cn1nc(C(=O)NC(C)(C(=O)Nc2cncc3ccccc23)c2ccc(Cl)c(Cl)c2)cc1C#N (configuration not stated) | 7.58 µM and 14.1 µM
69 | COc1ccc2cncc(NC(=O)C3CCNc4cc(Cl)c(Cl)cc43)c2c1 (configuration not stated) | 0.131 µM
70 | Cn1nncc1C(=O)N1Cc2ccc(Cl)cc2C(C(=O)Nc2cncc3ccccc23)C1 (configuration not stated) | 0.397 µM
71 | CC(=O)NCc1cc(Cl)cc(CC(=O)Nc2cnccc2C)c1 | 41.3 µM
72 | CS(=O)(=O)c1ccc2c(NC(=O)C3CCS(=O)(=O)c4ccc(Cl)cc43)cncc2c1 (configuration not stated) | 0.744 µM
73 | N#CC1(CS(=O)(=O)N2Cc3ccc(Cl)cc3[C@H](C(=O)Nc3cncc4ccccc34)C2)CCS(=O)(=O)CC1 (stereo in doubt) | < 0.05 µM and 0.0814 µM and 0.0524 µM
74 | COc1c(Cl)cccc1OCCNC(=O)c1cc(=O)[nH]c2ccccc12 | 6.39 µM
75 | O=C(c1cc(=O)[nH]c2ccccc12)N1CCN(c2ccccc2F)CC1 | 24 µM

Row | SMILES | IC50
76 | CC1C(=O)NCCN1C(=O)CCCc1c[nH]c2ccccc12 (configuration not stated) | > 99.5 µM
77 | COC(=O)c1cc(/C=c2\sc(=C(C#N)C#N)n(-c3cccc(C(F)(F)F)c3)c2=O)oc1C | > 99.5 µM
78 | O=C(Nc1[nH]nc2cccnc12)C1CCOc2ccc(Cl)cc21 (configuration not stated) | > 99.5 µM
79 | Cn1ncc2cncc(NC(=O)C3CN(S(=O)(=O)CC4(C#N)CC4)Cc4ccc(Cl)cc43)c21 (configuration not stated) | 2.53 µM
80 | COC(=O)C(C)(CN(C(=O)c1ccco1)C(C(=O)NCCc1cccc(F)c1)c1cccnc1)c1ccccc1F (configuration not stated) | > 99.5 µM
81 | NCc1cn(CC(=O)N(CC(=O)N2CCNCC2)c2ccc(-c3ccccc3)cc2)nn1 | > 99.5 µM
82 | CN(c1cc(Cl)cc(CC(=O)Nc2cncc3ccccc23)c1)C1CCN(C(=O)OC(C)(C)C)CC1 | 2.5 µM
83 | N#Cc1c(Cl)cccc1Nc1cc(Cl)cc(CC(=O)Nc2cncc3ccccc23)c1 | 1.93 µM
84 | CC(NC(=O)c1c(Cl)nc2ccccn12)c1nnc2ccccn12 (configuration not stated) | > 99.5 µM
85 | O=C(NCCc1cccc(F)c1)C(c1cccnc1)N(C(=O)c1cocn1)C1CCC2(CCO2)CC1 (configuration not stated) | > 99.5 µM
86 | CC(C)(C)c1ccc(N(C(=O)c2ccco2)C(C(=O)N2CCOCC2)c2cccnc2)cc1 (configuration not stated) | 41 µM
87 | N#CC1(CS(=O)(=O)N2Cc3ccc(Cl)cc3C(C(=O)Nc3cncc4ccc(F)cc34)C2)CC1 (configuration not stated) | 0.137 µM
88 | COc1nc2ncc(C(C(=O)NCCc3cccc(F)c3)N(C(=O)c3cocn3)c3ccc(C(C)(C)C)cc3)cn2n1 (configuration not stated) | 33.4 µM
89 | O=C(Cc1cccc(Cl)c1)N1CC(O)Cc2ccccc21 (configuration not stated) | > 99.5 µM
90 | N#CC(C(=O)Nc1cncc2ccccc12)c1ccc(Cl)c(Cl)c1 (configuration not stated) | 0.803 µM
91 | C=CC(=O)N(c1ccc(C(C)(C)C)cc1)C(C(=O)NCCc1cccc(F)c1)c1cncc(Cl)c1 (configuration not stated) | 11.5 µM
92 | O=C(NCCc1cccc(F)c1)C(c1cccnc1)N(C(=O)c1cocn1)c1cnn(-c2ccccc2)c1 (configuration not stated) | 2.95 µM
93 | O=C(Nc1cc[nH]c(=O)c1)C1CCOc2ccc(Cl)cc21 (configuration not stated) | > 99.5 µM
94 | O=C(NCCc1cccc(F)c1)C(c1cccnc1)N(C(=O)c1cnc[nH]1)c1ccc2ncsc2c1 (configuration not stated) | > 99 µM
95 | CC(C)(C)c1ccc(N(C(=O)c2ccco2)C(C(=O)NCc2ccccc2)c2cccnc2)cc1 (configuration not stated) | 4.36 µM
96 | O=C(Nc1cncc2ccccc12)C1=CCCc2ccc(Cl)cc21 | 0.233 µM
97 | CNC(=O)C1(N2Cc3ccc(Cl)cc3C3(CCN(c4cncc5ccc(OCCN(C)C)cc45)C3=O)C2)CC1 (configuration not stated) | 0.614 µM
